How the values were obtained:
[1] = In vitro digestion of prodrugs by porcine pancreatin in simulated intestinal fluid (SIF); format: in vitro ADME; settings: for MG intermediate detected in SIF: after 30 min incubation; for half-life at 1.96 µg/ml: pig, pH 6.5, SIF with porcine pancreatin, read-out: apparent half-life of MG intermediate in SIF
Experimental: Briefly, the lipase solution was prepared by dispersion of porcine pancreatin (10,000 IU/ml) in a lipolysis buffer (pH 6.5) containing tris-maleate (2 mM), CaCl2 (1.4 mM) and NaCl (150 mM), followed by centrifugation at 2,000 g for 15 min at 5°C to provide the lipase solution as the supernatant. To start the hydrolysis, 100 µl of the lipase solution was added to a mixture of 20 µl of prodrug solution (0.1 mg/ml dissolved in acetonitrile) and 900 µl of simulated intestinal micellar solution (3 mM of sodium taurodeoxycholate and 0.75 mM of phosphatidylcholine dispersed in lipolysis buffer). The solution was incubated at 37°C. Samples (20 µl) of the incubation solution were taken at 0, 5, 10, 15, 30, 60, 90, 120 and 180 min post incubation and added to 180 µl of acetonitrile to stop lipolysis. The mixture was vortexed and centrifuged at 4,500 g for 5 min to precipitate proteins prior to analysis. The supernatant was analysed by HPLC-MS/MS for the potential products (Figure 1) of prodrug hydrolysis as described in the Supplementary Material.
(§1) Absolute quantification of the hydrolysis products, i.e., MG derivatives and BUP-linker-COOH forms (“acid” forms) was not attempted due to lack of authentic standards. Instead, the profiles for these species were plotted based on the peak areas obtained from HPLC-MS. […] To illustrate changes to the BUP-linker-acid forms, the relative changes were plotted as the peak areas on the right-hand Y axis in Figures 3 and 5.

[2] = In vitro incubation of prodrugs with LPL supplemented rat plasma; format: in vitro ADME, Sprague Dawley rat; settings: over 3 h
Experimental: […] is tethered to the luminal surface of vascular endothelial cells under physiological conditions ([Bensadoun 1991]). In the current in vitro studies, rat plasma was therefore supplemented with LPL to better reflect the in vivo situation. To start hydrolysis, 10 µl of LPL solution (10,000 IU/ml) was added to a mixture of 10 µl of prodrug solution (0.1 mg/ml dissolved in acetonitrile) and 500 µl of blank Sprague Dawley rat plasma. The solution was incubated at 37°C. Samples (20 µl) of the incubation solution were taken at 0, 5, 15, 30, 60, 90, 120 and 180 min post incubation and added to 180 µl of ACN to stop lipolysis. The mixture was vortexed and centrifuged at 4,500 g for 5 min to precipitate proteins prior to analysis.
as §1

[3] = parameters: method as in earlier work; settings: ref Tauber, Schroder, Dusterberg and Matthes 1986b; Shackleford et al., 2003; cited from earlier work

## CO[C@]12CC[C@@]3(C[C@@H]1[C@](C)(O)C(C)(C)C)[C@H]1Cc4ccc(OC(=O)CCC(=O)OC(CO)CO)c5c4[C@@]3(CCN1CC1CC1)[C@H]2O5 [BUP-C4-MG]
[1]
  MG intermediate detected in SIF: only trace quantities
  half-life at 1.96 µg/ml: < 10 min
[2]
  BUP-linker-acid form detected in plasma: no BUP-linker-acid forms were detected

## CO[C@]12CC[C@@]3(C[C@@H]1[C@](C)(O)C(C)(C)C)[C@H]1Cc4ccc(OC(=O)CC(C)CC(=O)OC(CO)CO)c5c4[C@@]3(CCN1CC1CC1)[C@H]2O5 (stereo partly drawn) [BUP-C5bMe-MG]
[1]
  half-life at 1.96 µg/ml: > 60 min
[2]
  BUP-linker-acid form detected in plasma: no BUP-linker-acid forms were detected

## CO[C@]12CC[C@@]3(C[C@@H]1[C@](C)(O)C(C)(C)C)[C@H]1Cc4ccc(OC(=O)CCCCOC(=O)CCC(=O)OC(CO)CO)c5c4[C@@]3(CCN1CC1CC1)[C@H]2O5 [BUP-CE-C4-MG]
[1]
  MG intermediate detected in SIF: only trace quantities
[2]
  BUP-linker-acid form detected in plasma: transiently detected

## CO[C@]12CC[C@@]3(C[C@@H]1[C@](C)(O)C(C)(C)C)[C@H]1Cc4ccc(OC(=O)CC(C)(C)c5c(C)cc(C)cc5OC(=O)CCC(=O)OC(CO)CO)c5c4[C@@]3(CCN1CC1CC1)[C@H]2O5 [BUP-TML-C4-MG]
[1]; after 2 h
  MG intermediate remaining in simulated GI fluids: more than half
[2]
  BUP-linker-acid form detected in plasma: no BUP-linker-acid forms were detected

## CO[C@]12CC[C@@]3(C[C@@H]1[C@](C)(O)C(C)(C)C)[C@H]1Cc4ccc(OC(=O)CC(C)(C)c5c(C)cc(C)cc5OC(=O)CC(C)CC(=O)OC(CO)CO)c5c4[C@@]3(CCN1CC1CC1)[C@H]2O5 (stereo partly drawn) [BUP-TML-C5bMe-MG]
[1]; at the end of the 3 h incubation, relative peak area
  MG intermediate remaining in SIF: more than 80%
[2]
  BUP-linker-acid form detected in plasma: no BUP-linker-acid forms were detected

## CCCCCCCCCCC(=O)O[C@H]1CC[C@H]2[C@@H]3CCC4=CC(=O)CC[C@]4(C)[C@H]3CC[C@]12C [testosterone undecanoate]
[3]
  oral bioavailability for TST: ~5%

— article PMC9039622 (Frontiers in Pharmacology, 2022)
